Like-named read-outs stand apart in the source and are kept apart here.
Columns and labels:
[1] = target: T1, CRTH2 (Homo sapiens (Human), UniProt Q9Y5Y4); assay: CRTH2 receptor binding inhibitory activity ([3H]-PGD2 displacement, membranes of CRTH2-expressing K562 cell); settings: [3H]-PGD2 displacement, membrane of CRTH2-expressing K562 cell, read-out: Ki
Procedure, shortened: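 Incubation ran 60 min at room temperature using 20 μg/well membrane from CRTH2-expressing K562 cells in pH 7.4 Tris/HCl (50 mM) with 10 mM MgCl2.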

[2] = target: CYP3A4 enzyme expressed in Escherichia coli (Homo sapiens (Human), UniProt P08684); assay: CYP3A4 fluorescent MBI test; assay type: in vitro ADME; settings: pre-reaction time 0 or 30 minutes, substrate 7-BFC; read-out: CYP3A4 MBI, difference between IC50 values with and without preincubation
CYP3A4 enzyme expressed in Escherichia coli, sequence (P08684 whole entry): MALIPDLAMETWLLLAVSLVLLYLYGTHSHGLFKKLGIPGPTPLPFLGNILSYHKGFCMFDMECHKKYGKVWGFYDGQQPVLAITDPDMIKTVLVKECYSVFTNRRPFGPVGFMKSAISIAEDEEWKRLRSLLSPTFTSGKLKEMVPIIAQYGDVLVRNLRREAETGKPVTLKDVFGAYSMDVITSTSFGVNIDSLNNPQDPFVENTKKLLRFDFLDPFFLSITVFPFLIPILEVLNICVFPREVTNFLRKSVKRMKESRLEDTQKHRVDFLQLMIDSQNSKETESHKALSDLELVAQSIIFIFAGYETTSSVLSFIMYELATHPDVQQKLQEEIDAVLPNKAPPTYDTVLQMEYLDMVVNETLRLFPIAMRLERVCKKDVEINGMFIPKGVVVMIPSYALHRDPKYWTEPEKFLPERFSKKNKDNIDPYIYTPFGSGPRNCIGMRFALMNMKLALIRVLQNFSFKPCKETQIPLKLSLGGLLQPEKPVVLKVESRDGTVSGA
Experimental: The CYP3A4 fluorescent MBI test is a test of investigating enhancement of CYP3A4 inhibition of a compound by a metabolism reaction, and the test was performed using, as CYP3A4 enzyme expressed in Escherichia coli and employing, as an index, a reaction in which 7-benzyloxytrifluoromethylcoumarin (7-BFC) is debenzylated by the CYP3A4 enzyme to produce a metabolite, 7-hydroxytrifluoromethylcoumarin (HFC) emitting fluorescent light.
The reaction conditions were as follows: substrate, 5.6 μmol/L 7-BFC; pre-reaction time, 0 or 30 minutes; reaction time, 15 minutes; reaction temperature, 25° C. (room temperature); CYP3A4 content (expressed in Escherichia coli), at pre-reaction […], at reaction […] (at 10-fold dilution); concentration of a compound of the present, 0.625, 1.25, 2.5, 5, 10, 20 μmol/L (six points).
An enzyme in a K-Pi buffer (pH 7.4) and a compound solution of the present invention as a pre-reaction mixture were added to a 96-well plate at the composition of the pre-reaction, a part of it was transferred to another 96-well plate so that it was 1/10 diluted by a substrate in a K-Pi buffer, NADPH as a co-factor was added to initiate a reaction as an index (without preincubation) and, after a predetermined time of a reaction, acetonitrile/0.5 mol/L Tris(trishydroxyaminomethane)=4/1 (V/V) was added to stop the reaction. In addition, NADPH was added to a remaining preincubation solution to initiate a preincubation (with preincubation) and, after a predetermined time of a preincubation, a part was transferred to another plate so that it was 1/10 diluted with a substrate and a K-Pi buffer to initiate a reaction as an index. After a predetermined time of a reaction, acetonitrile/0.5 mol/L Tris(trishydroxyaminomethane)=4/1 (V/V) was added to stop the reaction. For the plate on which each index reaction had been performed, a fluorescent value of 7-HFC which is a metabolite was measured with a fluorescent plate reader. (Ex=420 nm, Em=535 nm).

[3] = target: Human DP1 receptor (Homo sapiens (Human), UniProt Q13258); assay: Human DP1 inhibitory activity in DP1-expressing cell (PGD2-induced cAMP); assay type: cell-based
Human DP1 receptor, sequence (Q13258 whole entry): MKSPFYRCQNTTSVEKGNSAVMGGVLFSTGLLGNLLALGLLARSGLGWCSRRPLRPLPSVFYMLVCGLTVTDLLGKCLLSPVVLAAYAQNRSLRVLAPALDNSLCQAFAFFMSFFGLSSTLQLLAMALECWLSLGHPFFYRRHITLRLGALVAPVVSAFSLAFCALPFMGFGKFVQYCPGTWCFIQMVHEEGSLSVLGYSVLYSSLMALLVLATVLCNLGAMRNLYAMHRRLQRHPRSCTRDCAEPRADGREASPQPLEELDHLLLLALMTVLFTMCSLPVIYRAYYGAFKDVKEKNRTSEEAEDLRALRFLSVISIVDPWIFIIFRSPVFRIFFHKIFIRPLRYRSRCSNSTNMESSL
Experimental: Compounds were categorized as AA (cAMP is less than 100 nM) and A (cAMP is more than 100 nM and less than 5000 nM) as shown in Table 99 and 100.

[4] = target: DP receptor (Homo sapiens (Human), UniProt Q13258); assay: DP inhibitory activity in human platelets (PGD2-induced cAMP increase in platelet rich plasma, HTRF); assay type: cell-based; settings: IC50 of PGD2 (300 nM)-induced cAMP increase, read-out: PRP
DP receptor, sequence (Q13258 whole entry): as above
Experimental: Thirty milliliter of blood was drown from healthy human into a syringe preloaded with 1/9 volume of 3.8% citrate sodium. The blood was centrifuged with 180 g for 10 min at room temperature and the upper plasma layer was collected as platelet rich plasma (PRP). The PRP was transferred to plate and treated with 3-isobutyl-1-methylxanthin (IBMX; […]) for 5 min. Then the compounds of the present invention were added to the plate and after 10 min, 300 nM of PGD2 was added. The reaction was stopped with 1 mmol/l hydrogenchlolide after 2 min of PGD2 addition, and platelet was lysed by adding 12% Triton X-100. The concentration of cAMP in the supernatant of the platelet lysate was quantified using homogenous time resolved fluorescence (HTRF). Inhibition ratio was defined by cAMP increase with and without compound, and […] for each compound was calculated from inhibitory curve.

[5] = target: T1, CRTH2; assay: CRTH2 inhibitory activity in CRTH2-expressing cells (PGD2-induced intracellular calcium increase, K562); assay type: cell-based; settings: 200 nM PGD2, read-out: IC50, inhibition of intracellular calcium concentration increase induced by PGD2
Experimental: CRTH2 inhibitory activities of compounds were determined as inhibition activity of intra-cellular calcium concentration increase induced by PGD2 in CRTH2-expressing cells.
CRTH2-expressing K562 cells were suspended at concentration of 2×10^6 cells/ml in buffer (10 mM HEPES, pH 7.4, 0.1% Bovine serum albumin). Cells were incubated with […] (4 μM) for 30 min at room temperature. Cells were washed, resuspended and mixed with various concentration of compounds of the present invention. After 2 min, cells were treated with 200 nM of PGD2. Then intracellular calcium concentration was measured using intracellular ion analyzer (FDSS3000). Inhibition ratio was defined by comparing intracellular calcium concentration increase with and without compound, and IC50 for each compound was calculated from inhibitory curve.

[6] = target: T1, CRTH2; assay: CRTH2 inhibitory activity in human eosinophil (PGD2 induced eosinophil shape change); assay type: cell-based; settings: human peripheral blood, 40 nM PGD2, forward scatter; read-out: IC50, inhibition of PGD2 induced eosinophil shape change
Experimental: CRTH2 inhibitory activity in human eosinophil was determined as inhibitory activity of PGD2 induced eosinophil shape change.
Human peripheral blood was mixed with compounds of the present invention at 37° C. After 5 min, the blood was treated with 40 nM of PGD2 for 10 min and fixed. The blood was hemolyzed and centrifuged. Blood cells were resuspended in PBS and measured forward scatter (FS) using flow cytometer (FACSAria). Inhibition ratio was defined by comparing FS with and without compound, and IC50 for each compound was calculated from inhibitory curve.

[7] = Solubility test (1% DMSO addition, artificial intestinal juice pH 6.8); assay type: physicochemical; settings: fassgf or other biorelevant, kinetic from dmso stock, artificial intestinal juice pH 6.8, 16 hours at 25° C.
Experimental: A 10 mmol/L solution of the compound of the present invention is prepared with DMSO, and 6 μL of the compound solution is added to 594 μL of an artificial intestinal juice (water and 118 mL of 0.2 mol/L NaOH reagent are added to 250 mL of 0.2 mol/L potassium dihydrogen phosphate reagent to reach 1000 mL) with a pH of 6.8. The mixture is left standing for 16 hours at 25° C., and the mixture is vacuum-filtered. The filtrate is two-fold diluted with methanol/water=1/1 (V/V), and the compound concentration in the filtrate is measured with HPLC or LC/MS/MS by the absolute calibration method.

[8] = CRTH2 receptor binding, categorized AAAA/AAA
[9] = category of cAMP IC50, human DP1 receptor expressing Jurkut cell
[10] = IC50 of PGD2 (60 nM)-induced cAMP increase, human DP1 receptor expressing Jurkut cell

T1 sequence (Q9Y5Y4 whole entry): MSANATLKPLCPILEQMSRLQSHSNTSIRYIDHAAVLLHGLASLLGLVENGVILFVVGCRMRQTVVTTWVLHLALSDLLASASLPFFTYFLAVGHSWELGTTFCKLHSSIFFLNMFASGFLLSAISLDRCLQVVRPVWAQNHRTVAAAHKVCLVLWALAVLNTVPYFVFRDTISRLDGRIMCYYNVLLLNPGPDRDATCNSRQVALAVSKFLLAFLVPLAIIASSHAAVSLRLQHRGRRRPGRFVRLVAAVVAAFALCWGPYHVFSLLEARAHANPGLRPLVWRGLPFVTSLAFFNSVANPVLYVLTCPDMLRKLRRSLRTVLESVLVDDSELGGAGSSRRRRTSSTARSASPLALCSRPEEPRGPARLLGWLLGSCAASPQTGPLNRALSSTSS

| Compound | Ki [1, 8] [nM] | difference in IC50 with vs without preincubation [2] [nM] | IC50 [3, 9] [nM] | Ki [1] [nM] | IC50 [4] [nM] | IC50 [5] [nM] | IC50 [6] [nM] | IC50 [3, 10] [nM] | solubility at 16 h [7] [µM] |
| --- | --- | --- | --- | --- | --- | --- | --- | --- | --- |
| CCOc1ccc(S(=O)(=O)N2C[C@@H](C)[C@@H](n3c(C)c(CC(=O)O)c4ccccc43)C2)cc1 [Compound I-329] | < 100 | ≤ 3000 | < 100 |  |  |  |  |  |  |
| CC(C)Oc1ccc(S(=O)(=O)N2C[C@@H](C)[C@@H](n3nc(CC(=O)O)c4ccc(F)cc43)C2)cn1 [Compound I-123] | < 100 |  | < 100 | 4.3 | 120 | 91 | 60 | 31 |  |
| CCOc1ccc(S(=O)(=O)N2C[C@@H](C)[C@@H](n3nc(CC(=O)O)c4ccccc43)C2)cc1 [Compound I-97] | < 100 |  | < 100 | 13 |  | 92 | 68 |  |  |
| CC(C)Oc1ccc(S(=O)(=O)N2C[C@H](C)[C@@H](n3nc(CC(=O)O)c4ccc(F)cc43)C2)cc1 [Compound I-31] | < 100 |  | < 100 |  |  |  | 13 |  |  |
| CC(C)Oc1ccc(S(=O)(=O)N2C[C@@H](C)[C@@H](n3nc(CC(=O)O)c4ccc(C(F)(F)F)cc43)C2)cn1 [Compound I-131] | < 100 |  | < 100 | 7.4 | 190 | 210 |  | 31 |  |
| C[C@@H]1CN(S(=O)(=O)c2ccc(OC(F)(F)F)cc2)C[C@@H]1n1nc(CC(=O)O)c2ccc(Cl)cc21 [Compound I-142] | < 100 |  | < 100 | 11 | 92 |  |  | 9.9 |  |
| Cc1c(CC(=O)O)c2ccccc2n1[C@H]1CN(S(=O)(=O)c2ccc(F)cc2)C[C@H]1C [Compound I-287] | < 100 | ≤ 3000 | 100 to 5000 |  |  |  |  |  |  |
| CCOc1ccc(S(=O)(=O)N2C[C@@H](C)[C@@H](n3nc(CC(=O)O)c4c(C)cccc43)C2)cc1 [Compound I-205] | 100 to 5000 |  | < 100 |  | 70 |  |  | 13 |  |
| CCOc1ccc(S(=O)(=O)N2C[C@@H](C)[C@@H](n3nc(CC(=O)O)c4ccccc43)C2)c(N)c1 [Compound I-325] | < 100 |  | < 100 | 28 | 210 |  |  | 24 |  |
| CCOc1ccc(S(=O)(=O)N2C[C@@H](C)[C@@H](n3nc(CC(=O)O)c4cc(C#N)ccc43)C2)cn1 [Compound I-159] | 100 to 5000 |  | 100 to 5000 |  | 68 |  |  | 140 |  |
| CC(C)Oc1ccc(S(=O)(=O)N2C[C@H](n3nc(CC(=O)O)c4ccc(F)cc43)C[C@@H]2Cn2cccn2)cc1 [Compound I-21] | < 100 |  | < 100 | 10 | 180 |  |  | 59 |  |
| CC(C)Oc1ccc(S(=O)(=O)N2C[C@H](n3nc(CC(=O)O)c4ccc(F)cc43)[C@@](C)(F)C2)cc1 (racemic) [Compound I-85] | < 100 |  | < 100 | 2.8 | 210 | 140 | 33 | 19 | > 50 |
| CC(C)Oc1ccc(S(=O)(=O)N2C[C@@H](C)[C@@H](n3cc(CC(=O)O)c4ccc(F)cc43)C2)cc1 [Compound I-144] | < 100 |  | < 100 | 3.1 | 82 |  |  | 4.7 |  |
| CCOc1ccc(S(=O)(=O)N2C[C@@H](C)[C@@H](n3nc(CC(=O)O)c4ccc(N5CCCC5)cc43)C2)cn1 [Compound I-222] | 100 to 5000 |  | < 100 | 100 | 140 |  |  | 95 |  |
| CCOc1ncc(S(=O)(=O)N2C[C@@H](C)[C@@H](n3nc(CC(=O)O)c4ccc(F)cc43)C2)s1 [Compound I-166] | < 100 |  | < 100 | 12 | 55 |  |  | 32 |  |
| CC(C)Oc1ccc(S(=O)(=O)N2C[C@@H](C)[C@@H](n3nc(CC(=O)O)c4ccc(C(F)(F)F)cc43)C2)cc1 [Compound I-130] | < 100 |  | < 100 | 4.7 | 240 | 73 | 46 | 10 |  |
| CCOc1ccc(S(=O)(=O)N2C[C@@H](C)[C@@H](n3cc(CC(=O)O)c4ccc(C#N)cc43)C2)cc1 [Compound I-256] | < 100 | ≤ 3000 | < 100 |  |  |  |  |  |  |
